As usually defined, the viability is a read-out of living cells in per cent, often relative to untreated cells.

One series is described as follows: in vitro. The settings on record: human, hela cells, % viability.
For the compound `Cc1cc(C(=O)Nc2nnc[nH]2)ccc1[N+](=O)[O-]` [CBK264719], the viability at 28.5 h, 10 µM stood at 99.7%. Same read-out and setting: next, `COc1ccc(CN2CCC(N3CCN(c4ccccc4F)CC3)CC2)cc1OCc1ccccc1` [CBK264720G]: 105%. On the same count and under the same terms, the same measure for `COc1ccc(CN2CCC(N3CCCCCC3)CC2)cc1OC` [CBK264721G]: 90.8%.

Take `CC(NC(=O)c1c(Cl)c(Cl)c(Cl)c(Cl)c1C(=O)O)c1cccs1` (stereo not shown) [CBK264722]: the viability at 28.5 h, 10 µM came to 107%.

Regarding `COc1ccc(C(=O)C2=C(O)C(=O)N(CCCN(C)C)C2c2ccc(Cl)c(Cl)c2)cc1` (stereo not shown) [CBK264723], the viability at 28.5 h, 10 µM came to 94.4%. For `COc1ccc(Cl)cc1NC(=O)CN(c1cc(C(F)(F)F)ccc1Cl)S(C)(=O)=O` [CBK264724], the viability at 28.5 h, 10 µM amounted to 82.5%.

As to `Cc1ccc(NC(=O)CN2C(=O)S/C(=C\c3cc(C)n(-c4cccc(C(=O)O)c4)c3C)C2=O)cc1` [CBK264725], the viability at 28.5 h, 10 µM is 89.9%. On to `Cc1ccc(S(=O)(=O)N(CC(=O)Nc2ccccc2C)Cc2ccc(Cl)c(Cl)c2)cc1` [CBK264735], for which the viability at 28.5 h, 10 µM is 93.3%. The same measure, in the same setting: next, `Cc1ccc2nc(-c3ccccc3)c(CN3CCCC3)c(O)c2c1` [CBK264736]: 106%; `COc1ccccc1N(CC(=O)Nc1ccc2c(c1)oc1ccccc12)S(=O)(=O)c1ccccc1` [CBK264737]: 87.8%. Still for that read-out and setting: the same measure for `Cc1ccc(N(CC(O)CN2CCCC2)S(=O)(=O)c2ccccc2)cc1` (stereo not shown) [CBK264739]: 101%. As for `CCNC(=S)N1CCN(CCNC=C2C(=O)CC(c3ccco3)CC2=O)CC1` (stereo not shown) [CBK264742], the viability at 28.5 h, 10 µM came to 91.7%. As to `O=C(/C=C/C=C/c1ccccc1)CC1(O)C(=O)N(Cc2cccc3ccccc23)c2ccccc21` (stereo not shown) [CBK264744], the viability at 28.5 h, 10 µM was determined as 93.6%.

Take `CC(=O)Nc1ccc(S(=O)(=O)Nc2ccc(S(=O)(=O)Nc3cc(C)ccc3C)cc2)cc1` [CBK264745]: the viability at 28.5 h, 10 µM was found to be 98.4%. On the same count and under the same terms, the same measure for `CCCn1c(=N)n(CCOc2cccc(C)c2)c2ccccc21` [CBK264746B]: 89.2%; for `COc1ccc(OC)c(C2C(C(=O)c3ccccc3)=C(O)C(=O)N2CCN2CCOCC2)c1` (stereo not shown) [CBK264748]: 114%; for `Cc1ncc([N+](=O)[O-])n1CCSc1nnc(SCc2ccccc2)s1` [CBK264751]: 86.4%. Regarding `Cc1n[nH]c(O)c1C(c1cccc([N+](=O)[O-])c1)c1c(C)n[nH]c1O` [CBK264753], the viability at 28.5 h, 10 µM stood at 97.8%. As to `O=C(O)CCc1ccc(-c2ccc(F)cc2)n1-c1cc(Cl)ccc1Cl` [CBK264754], the viability at 28.5 h, 10 µM is 111%. Still for that read-out and setting: next, `CCOC(=O)c1cnc2c(C)cc(C)cc2c1NCCN1CCOCC1` [CBK264757]: 109%; `CC(=O)Nc1cccc(NC(=O)CSc2ccc(C(F)(F)F)cc2[N+](=O)[O-])c1` [CBK264758]: 103%. Same read-out and setting: next, `CC(C)(C)c1ccc(S(=O)(=O)N/N=C\c2ccc(Cl)cc2Cl)cc1` [CBK264759]: 84.6%; `COc1ccc(C2CC(=O)C(=CNCCN3CCN(C(=O)c4ccccc4)CC3)C(=O)C2)cc1` (stereo not shown) [CBK264762]: 104%. Regarding `CC(=O)Nc1ccc(S(=O)(=O)N2CCN(c3ccc([N+](=O)[O-])c(N4CCOCC4)c3)CC2)cc1` [CBK264764], the viability at 28.5 h, 10 µM turned out to be 109%. In the case of `CC(Nc1nc(-c2ccc([N+](=O)[O-])cc2)nc2ccccc12)c1ccccc1` (stereo not shown) [CBK264767], the viability at 28.5 h, 10 µM was found to be 88.3%. Consider `Cc1cc(/C=C(/C#N)c2nc3ccccc3[nH]2)c(C)n1-c1ccc(S(N)(=O)=O)cc1` [CBK264769], for which the viability at 28.5 h, 10 µM turned out to be 77.8%. Regarding `CC(=O)NS(=O)(=O)c1ccc(-c2ccc(/C=C(/C#N)c3nc4ccc(C)cc4[nH]3)o2)cc1` [CBK264771], the viability at 28.5 h, 10 µM amounted to 109%. For the compound `O=[N+]([O-])c1ccc(N2CCN(S(=O)(=O)N3CCCC3)CC2)c(Cl)c1` [CBK264772], the viability at 28.5 h, 10 µM was 102%. Consider `CCN(CC)S(=O)(=O)c1ccc(OC)c(NC(=O)C2c3ccccc3Oc3ccccc32)c1` [CBK264774], for which the viability at 28.5 h, 10 µM is 101%. Consider `CC1(C)CC(=O)C(C(=S)Nc2ccc(F)cc2)=C(NCc2ccc3c(c2)OCO3)C1` [CBK264779], for which the viability at 28.5 h, 10 µM was 97.5%.

As for `O=C(O)CCc1ccc(-c2cccs2)n1NC(=O)c1sc2ccccc2c1Cl` [CBK264782], the viability at 28.5 h, 10 µM came out at 96.1%. `CCCc1cc(=O)oc2cc(OCc3ccc(C(=O)O)o3)ccc12` [CBK264786]: the viability at 28.5 h, 10 µM was determined as 108%.

Consider `O=[N+]([O-])c1ccc(-c2nc(NCc3cccnc3)c3ccccc3n2)cc1` [CBK264788], for which the viability at 28.5 h, 10 µM stood at 100%. For `O=C(COC(=O)C1CCC(N2C(=O)c3ccccc3C2=O)CC1)c1ccc(-c2ccccc2)cc1` (stereo not shown) [CBK264789], the viability at 28.5 h, 10 µM was found to be 90.4%. Still for that read-out and setting: the same measure for `CCOc1ccccc1-n1c(CCC(=O)O)ccc1-c1cccs1` [CBK264794]: 105%; for `O=[N+]([O-])c1ccccc1S(=O)(=O)Nc1ccc(S(=O)(=O)Nc2ccccc2)cc1` [CBK264796]: 106%. On the same count and under the same terms, the same measure for `CCOC(=O)c1cnc2c(C)cc(Cl)cc2c1NCCN(C)C` [CBK264800]: 90.7%; for `Cc1cc(Cl)ccc1OCC(=O)NC(=S)Nc1cccc(-c2nc3ccccc3s2)c1` [CBK264802]: 105%.

Consider `Cc1ccc(NC(=O)C(=O)NCCCN2CCOCC2)cc1Cl` [CBK264806], for which the viability at 28.5 h, 10 µM was 97.4%.

Consider `COc1ccc(C(=O)COC(=O)c2cccc(N3C(=O)C4C5C=C(C)C(C5)C4C3=O)c2)cc1` (stereo not shown) [CBK264808], for which the viability at 28.5 h, 10 µM was 94.1%.

With `Cc1ccc(NS(=O)(=O)c2ccc(NC(=O)c3ccc(CN4CCOCC4)cc3)cc2)c(C)c1` [CBK264815], the viability at 28.5 h, 10 µM was 94.5%. For `COCCNc1nc(-c2ccc([N+](=O)[O-])cc2)nc2ccccc12` [CBK264819], the viability at 28.5 h, 10 µM was 109%.

`Cc1ccc(-c2ccc(CCC(=O)O)[nH]2)cc1` [CBK264820]: the viability at 28.5 h, 10 µM is 109%. For `Cc1ccccc1OCC(O)CNC(=O)c1ccccc1C(=O)O` (stereo not shown) [CBK264824], the viability at 28.5 h, 10 µM is 94.8%. On the same count and under the same terms, next, `O=[N+]([O-])c1ccc(N2CCN(S(=O)(=O)c3ccc4ccccc4c3)CC2)c(C(F)(F)F)c1` [CBK264827]: 103%; `O=C(Nc1cccc(NC(=S)NC(=O)c2ccc(Cl)cc2Cl)c1)c1ccccc1F` [CBK264828]: 107%. As for `COc1ccccc1N(CC(O)CN1CCCC1)S(=O)(=O)c1ccccc1` (stereo not shown) [CBK264829], the viability at 28.5 h, 10 µM was 114%. On to `Cn1c(-c2c(CCC(=O)O)oc3cc(O)ccc3c2=O)nc2ccccc21` [CBK264831], for which the viability at 28.5 h, 10 µM came to 96%.

For `Cc1ccccc1N1CCN(C(=O)c2c(C)oc3cc4c(C(=O)N5CCN(c6ccccc6C)CC5)c(C)oc4cc23)CC1` [CBK264833], the viability at 28.5 h, 10 µM was 89.2%. For `NS(=O)(=O)c1ccc(NC(=O)CN2C(=O)S/C(=C\C=C\c3ccccc3)C2=O)cc1` [CBK264835], the viability at 28.5 h, 10 µM amounted to 94.6%. Still for that read-out and setting: the same measure for `Cc1ccc(NC(=O)C(=O)NCCCN2CCOCC2)cc1C` [CBK264836]: 106%; for `O=C(O)CCSc1nc(-c2ccccc2)c(-c2ccccc2)n1-c1ccccc1` [CBK264837]: 113%. On to `CCc1cc2c(=O)c(-c3nc(C)cs3)c(CCC(=O)O)oc2cc1O` [CBK264838], for which the viability at 28.5 h, 10 µM came to 108%. On the same count and under the same terms, next, `Cc1cccc(C(=O)Nc2c(C(=O)Nc3ccc(Br)cc3)cnn2-c2ccccc2)c1` [CBK264839]: 113%; `CC(C)c1ccccc1OCC(=O)OCCN1C(=O)c2ccccc2C1=O` [CBK264841]: 92.2%; `O=C(CN(C1CCCCC1)S(=O)(=O)c1ccc(Br)cc1)NCc1ccccn1` [CBK264846]: 93.6%. On to `[O-][n+]1cc(-c2ccccc2)[n+]([O-])c2c1CCCC2` [CBK264847], for which the viability at 28.5 h, 10 µM was 98.7%. The same measure, in the same setting: next, `Cc1cccc(C)c1NC(=O)C(=O)NCCCN1CCOCC1` [CBK264850]: 90.6%; `CN1CCN(C(=O)Nc2ccc(Cc3ccc(NC(=O)N4CCN(C)CC4)cc3)cc2)CC1` [CBK264852]: 104%; `Cc1cc(C)c(NC(=O)CSCC(=O)Nc2ccc3ccccc3c2)c(C)c1` [CBK264856]: 100%.

Take `O=C(CN1C(=O)C2C3c4ccccc4C(c4ccccc43)C2C1=O)OCC(=O)c1ccc(F)cc1` (stereo not shown) [CBK264861]: the viability at 28.5 h, 10 µM was 106%. As for `COc1cccc(C2C(C(=O)c3ccc(Br)cc3)=C(O)C(=O)N2CCCN2CCOCC2)c1` (stereo not shown) [CBK264862], the viability at 28.5 h, 10 µM stood at 103%. On the same count and under the same terms, next, `O=S(=O)(c1ccc(F)cc1)N1CCN(c2ncnc3scc(-c4ccccc4)c23)CC1` [CBK264864]: 103%; `COc1ccc(C(=O)C2=C(O)C(=O)N(CCN(C)C)C2c2ccncc2)c(C)c1` (stereo not shown) [CBK264867]: 92.5%. Same read-out and setting: the same measure for `OCCCNC(=S)NCCc1ccccc1` [CBK264869]: 99.7%; for `Cc1ccc(NC(=S)NCCc2ccc(S(N)(=O)=O)cc2)c(C)c1` [CBK264870]: 93.9%; for `COc1cc(C2C(C(=O)c3cccs3)=C(O)C(=O)N2Cc2cccnc2)cc(OC)c1OC` (stereo not shown) [CBK264874]: 92.8%.

Take `COCCCN1C(=O)C(O)=C(C(=O)c2ccc(C)o2)C1c1ccc(Br)cc1` (stereo not shown) [CBK264876]: the viability at 28.5 h, 10 µM turned out to be 90.9%. As for `Cc1cc(OCC(C)C)ccc1C(=O)C1=C(O)C(=O)N(Cc2cccnc2)C1c1cccnc1` (stereo not shown) [CBK264883], the viability at 28.5 h, 10 µM is 97.6%.

As to `O=C(COc1ccc2ccccc2c1)Oc1ccc2ccccc2c1` [CBK264885], the viability at 28.5 h, 10 µM turned out to be 110%.

Consider `CC(C)Oc1ccc(C(=O)C2=C(O)C(=O)N(CCN(C)C)C2c2ccccc2F)cc1` (stereo not shown) [CBK264886], for which the viability at 28.5 h, 10 µM came to 102%. As for `Cc1cc(Cl)ccc1NC(=S)NCCc1ccc(S(N)(=O)=O)cc1` [CBK264888], the viability at 28.5 h, 10 µM was found to be 88.5%.

The same series, now with this note: human, hela cells, % viability, bulk resorufin, single well.
In the case of `C=CCN1C(=O)/C(=C/c2cc(Cl)c(OCc3cccc(C(=O)O)c3)c(OC)c2)C(=O)NC1=S` [CBK264877G], the viability at 28.5 h, 10 µM was found to be 121%.

For the origin of these results see article PMC12040169 (PLOS Biology, 2025).
